How the values were obtained:
Test in all cases: cells
Capan-2 = assay type: functional, cell-based, Homo sapiens; details: Homo sapiens, Capan-2;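 also: Capan-2 cell growth inhibition, read out with a viability assay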
Description: SANGER: Inhibition of human Capan-2 cell growth in a cell viability assay.

ES5 = assay type: functional, cell-based, Homo sapiens; details: Homo sapiens, ES5;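 also: growth inhibition of human ES5 cells, read out by a cell viability assay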
Description: SANGER: Inhibition of human ES5 cell growth in a cell viability assay.

ES7 = assay type: functional, cell-based, Homo sapiens; details: Homo sapiens, ES7;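 also: growth inhibition of cultured human ES7 cells, read out as cell viability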
Description: SANGER: Inhibition of human ES7 cell growth in a cell viability assay.

FTC-133 = assay type: functional, cell-based, Homo sapiens; details: Homo sapiens, FTC-133
GB-1 = assay type: functional, cell-based, Homo sapiens; details: Homo sapiens, GB-1;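 also: growth of GB-1 cells judged by a viability assay, IC50 marks the concentration inhibiting growth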
Description: SANGER: Inhibition of human GB-1 cell growth in a cell viability assay.

HCC1954 = assay type: functional, cell-based, Homo sapiens; details: Homo sapiens, HCC1954;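 also: growth inhibition of human HCC1954 cells, read out with a cell viability assay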
Description: SANGER: Inhibition of human HCC1954 cell growth in a cell viability assay.

HCE-T = assay type: functional, cell-based, Homo sapiens; details: Homo sapiens, HCE-T;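 also: cell viability assay read-out, reporting inhibition of HCE-T cell growth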
Description: SANGER: Inhibition of human HCE-T cell growth in a cell viability assay.

HMV-2 cell line = assay type: functional, cell-based, Homo sapiens; details: Homo sapiens, HMV-2;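 also: growth inhibition of HMV-II cells, read out with a cell viability assay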
Description: SANGER: Inhibition of human HMV-II cell growth in a cell viability assay.

HuP-T4 = assay type: functional, cell-based, Homo sapiens; details: Homo sapiens, HuP-T4;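 also: cell viability assay measuring how much HuP-T4 cell growth is inhibited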
Description: SANGER: Inhibition of human HuP-T4 cell growth in a cell viability assay.

JVM-3 = assay type: functional, cell-based; details: Homo sapiens;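 also: growth inhibition of human JVM-3 cells, read out with a cell viability assay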
Description: SANGER: Inhibition of human JVM-3 cell growth in a cell viability assay.

KNS-81-FD = assay type: functional, cell-based, Homo sapiens; details: Homo sapiens, KNS-81-FD;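 also: growth inhibition of KNS-81-FD cells, read out with a cell viability assay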
Description: SANGER: Inhibition of human KNS-81-FD cell growth in a cell viability assay.

KP-N-YN = assay type: functional, cell-based; details: Homo sapiens;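 also: growth inhibition of KP-N-YN cells, read out with a cell viability assay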
Description: SANGER: Inhibition of human KP-N-YN cell growth in a cell viability assay.

KYSE-510 = assay type: functional, cell-based, Homo sapiens; details: Homo sapiens, KYSE-510;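 also: cell viability readout used to measure how strongly growth of the cell line is suppressed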
Description: SANGER: Inhibition of human KYSE-510 cell growth in a cell viability assay.

KYSE-520 cell line = assay type: functional, cell-based, Homo sapiens; details: Homo sapiens, KYSE-520;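 also: growth inhibition of human KYSE-520 cells, read out with a viability assay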
Description: SANGER: Inhibition of human KYSE-520 cell growth in a cell viability assay.

KYSE-70 cell line = assay type: functional, cell-based, Homo sapiens; details: Homo sapiens, KYSE-70;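 also: cell viability assay read-out, with IC50 expressing suppression of KYSE-70 cell growth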
Description: SANGER: Inhibition of human KYSE-70 cell growth in a cell viability assay.

L-363 = assay type: functional, cell-based; details: Homo sapiens
Description: SANGER: Inhibition of human L-363 cell growth in a cell viability assay.

LC-2-ad = assay type: functional, cell-based, Homo sapiens; details: Homo sapiens, LC-2-ad;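 also: growth inhibition of human LC-2-ad cells, read out with a cell viability assay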
Description: SANGER: Inhibition of human LC-2-ad cell growth in a cell viability assay.

LOX IMVI = assay type: functional, cell-based; details: Homo sapiens
Description: SANGER: Inhibition of human LOXIMVI cell growth in a cell viability assay.

LoVo = assay type: functional, cell-based; details: Homo sapiens;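 also: growth inhibition of human LoVo cells, read out with a cell viability assay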
Description: SANGER: Inhibition of human LoVo cell growth in a cell viability assay.

MEG-01 = assay type: functional, cell-based; details: Homo sapiens;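 also: growth inhibition of MEG-01 cells, read out by a cell viability assay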
Description: SANGER: Inhibition of human MEG-01 cell growth in a cell viability assay.

MN-60 = assay type: functional, cell-based; details: Homo sapiens;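 also: growth inhibition of the MN-60 cell line, determined with a cell viability assay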
Description: SANGER: Inhibition of human MN-60 cell growth in a cell viability assay.

MS-1 = assay type: functional, cell-based; details: Homo sapiens;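 also: growth inhibition of MS-1 cells, read out by cell viability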
Description: SANGER: Inhibition of human MS-1 cell growth in a cell viability assay.

NB10 = assay type: functional, cell-based, Homo sapiens; details: Homo sapiens, NB10;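 also: growth inhibition of NB10 cells, read out by a cell viability assay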
Description: SANGER: Inhibition of human NB10 cell growth in a cell viability assay.

NB7 = assay type: functional, cell-based; details: Homo sapiens;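 also: growth inhibition of NB7 cells, read out with a cell viability assay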
Description: SANGER: Inhibition of human NB7 cell growth in a cell viability assay.

NCI-H1355 = assay type: functional, cell-based, Homo sapiens; details: Homo sapiens, NCI-H1355;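 also: growth inhibition of human NCI-H1355 cells, read out by a cell viability assay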
Description: SANGER: Inhibition of human NCI-H1355 cell growth in a cell viability assay.

NCI-H1650 = assay type: functional, cell-based, Homo sapiens; details: Homo sapiens, NCI-H1650;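 also: growth inhibition of human NCI-H1650 cells measured by a cell viability assay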
Description: SANGER: Inhibition of human NCI-H1650 cell growth in a cell viability assay.

NCI-H520 = assay type: functional, cell-based, Homo sapiens; details: Homo sapiens, NCI-H520;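 also: growth inhibition of NCI-H520 cells, measured by a cell viability assay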
Description: SANGER: Inhibition of human NCI-H520 cell growth in a cell viability assay.

NCI-H810 = assay type: functional, cell-based, Homo sapiens; details: Homo sapiens, NCI-H810;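 also: IC50 reflects inhibition of cancer cell line growth, read out with a cell viability assay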
Description: SANGER: Inhibition of human NCI-H810 cell growth in a cell viability assay.

SNU-5 = assay type: functional, cell-based; details: Homo sapiens;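 also: cell viability readout used to measure growth inhibition in human NCI-SNU-5 cells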
Description: SANGER: Inhibition of human NCI-SNU-5 cell growth in a cell viability assay.

OCI-AML2 = assay type: functional, cell-based; details: Homo sapiens;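 also: growth inhibition of OCI-AML2 cells, read out with a cell viability assay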
Description: SANGER: Inhibition of human OCI-AML2 cell growth in a cell viability assay.

OVCAR-3 = assay type: functional, cell-based, Homo sapiens; details: Homo sapiens, OVCAR-3;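 also: growth inhibition of human OVCAR-3 cells, determined by a cell viability assay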
Description: SANGER: Inhibition of human OVCAR-3 cell growth in a cell viability assay.

RKO = assay type: functional, cell-based, Homo sapiens; details: Homo sapiens, RKO;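 also: growth inhibition of human RKO cells, read out with a cell viability assay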
Description: SANGER: Inhibition of human RKO cell growth in a cell viability assay.

RT-112 = assay type: functional, cell-based, Homo sapiens; details: Homo sapiens, RT-112
Description: SANGER: Inhibition of human RT-112 cell growth in a cell viability assay.

SCC-25 = assay type: functional, cell-based, Homo sapiens; details: Homo sapiens, SCC-25;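 also: growth inhibition of SCC-25 cells, measured with a cell viability assay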
Description: SANGER: Inhibition of human SCC-25 cell growth in a cell viability assay.

SCH = assay type: functional, cell-based, Homo sapiens; details: Homo sapiens, SCH;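 also: growth inhibition of human SCH cells, read out in a cell viability assay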
Description: SANGER: Inhibition of human SCH cell growth in a cell viability assay.

SF-126 = assay type: functional, cell-based, Homo sapiens; details: Homo sapiens, SF-126;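 also: growth inhibition of human SF126 cells, read out with a cell viability assay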
Description: SANGER: Inhibition of human SF126 cell growth in a cell viability assay.

SJSA-1 = assay type: functional, cell-based, Homo sapiens; details: Homo sapiens, SJSA-1;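 also: growth inhibition of human SJSA-1 cells, read out through a cell viability measurement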
Description: SANGER: Inhibition of human SJSA-1 cell growth in a cell viability assay.

SK-LU-1 = assay type: functional, cell-based, Homo sapiens; details: Homo sapiens, SK-LU-1;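 also: cell viability assay measuring growth inhibition of human SK-LU-1 cells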
Description: SANGER: Inhibition of human SK-LU-1 cell growth in a cell viability assay.

SK-MEL-24 = assay type: functional, cell-based; details: Homo sapiens;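 also: growth inhibition read out by a cell viability assay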
Description: SANGER: Inhibition of human SK-MEL-24 cell growth in a cell viability assay.

SNU-387 = assay type: functional, cell-based, Homo sapiens; details: Homo sapiens, SNU-387
Description: SANGER: Inhibition of human SNU-387 cell growth in a cell viability assay.

SW-620 = assay type: functional, cell-based, Homo sapiens; details: Homo sapiens, SW-620;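 also: growth inhibition of human SW-620 cells, measured by a cell viability assay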
Description: SANGER: Inhibition of human SW620 cell growth in a cell viability assay.

786-0 = assay type: functional, cell-based, Homo sapiens; details: Homo sapiens
Description: SANGER: Inhibition of human 786-0 cell growth in a cell viability assay.

8505C = assay type: functional, cell-based, Homo sapiens; details: Homo sapiens, 8505C
Description: SANGER: Inhibition of human 8505C cell growth in a cell viability assay.

A2780 = assay type: functional, cell-based, Homo sapiens; details: Homo sapiens, A2780;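 also: growth inhibition of A2780 cells, read out with a cell viability assay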
Description: SANGER: Inhibition of human A2780 cell growth in a cell viability assay.

AN3-CA = assay type: functional, cell-based; details: Homo sapiens;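 also: growth inhibition of human AN3-CA cells measured by a cell viability assay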
Description: SANGER: Inhibition of human AN3-CA cell growth in a cell viability assay.

BB49-HNC = assay type: functional, cell-based, Homo sapiens; details: Homo sapiens, BB49-HNC;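 also: cell viability assay read-out, reported as inhibition of BB49-HNC cell growth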
Description: SANGER: Inhibition of human BB49-HNC cell growth in a cell viability assay.

TE-10 = assay type: functional, cell-based, Homo sapiens; details: Homo sapiens, TE-10;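 also: growth inhibition of TE-10 cells, measured by a cell viability assay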
Description: SANGER: Inhibition of human TE-10 cell growth in a cell viability assay.

TGBC24TKB = assay type: functional, cell-based, Homo sapiens; details: Homo sapiens, TGBC24TKB;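 also: growth inhibition of human TGBC24TKB cells, read out with a cell viability assay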
Description: SANGER: Inhibition of human TGBC24TKB cell growth in a cell viability assay.

TGW = assay type: functional, cell-based; details: Homo sapiens;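 also: growth inhibition of human TGW cells, read out with a cell viability assay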
Description: SANGER: Inhibition of human TGW cell growth in a cell viability assay.

TYK-nu = assay type: functional, cell-based, Homo sapiens; details: Homo sapiens, TYK-nu;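 also: growth inhibition of human TYK-nu cells, read out by a cell viability assay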
Description: SANGER: Inhibition of human TYK-nu cell growth in a cell viability assay.

YAPC = assay type: functional, cell-based, Homo sapiens; details: Homo sapiens, YAPC;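 also: growth inhibition of YAPC cells, measured with a cell viability assay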
Description: SANGER: Inhibition of human YAPC cell growth in a cell viability assay.

CHL-1 = assay type: functional, cell-based, Homo sapiens; details: Homo sapiens, CHL-1;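 also: cell growth inhibition, read out with a cell viability assay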
Description: SANGER: Inhibition of human CHL-1 cell growth in a cell viability assay.

HuTu80 = assay type: functional, cell-based, Homo sapiens, HUTU-80; details: Homo sapiens, HuTu80;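 also: growth inhibition of HuTu80 human cells, determined with a cell viability readout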
Description: SANGER: Inhibition of human HUTU-80 cell growth in a cell viability assay.

O=C1N=C(NCc2cccs2)S/C1=C\c1ccc2ncccc2c1
IC50 (Capan-2): > 5 µM
IC50 (ES5): > 5 µM
IC50 (ES7): > 5 µM
IC50 (FTC-133): > 5 µM
IC50 (GB-1): > 5 µM
IC50 (HCC1954): > 5 µM
IC50 (HCE-T): > 5 µM
IC50 (HMV-2 cell line): > 5 µM
IC50 (HuP-T4): > 5 µM
IC50 (JVM-3): > 5 µM
IC50 (KNS-81-FD): > 5 µM
IC50 (KP-N-YN): > 5 µM
IC50 (KYSE-510): > 5 µM
IC50 (KYSE-520 cell line): > 5 µM
IC50 (KYSE-70 cell line): > 5 µM
IC50 (L-363): > 5 µM
IC50 (LC-2-ad): > 5 µM
IC50 (LOX IMVI): > 5 µM
IC50 (LoVo): > 5 µM
IC50 (MEG-01): > 5 µM
IC50 (MN-60): 4.38 µM
IC50 (MS-1): > 5 µM
IC50 (NB10): > 5 µM
IC50 (NB7): > 5 µM
IC50 (NCI-H1355): > 5 µM
IC50 (NCI-H1650): > 5 µM
IC50 (NCI-H520): > 5 µM
IC50 (NCI-H810): > 5 µM
IC50 (SNU-5): > 5 µM
IC50 (OCI-AML2): > 5 µM
IC50 (OVCAR-3): > 5 µM
IC50 (RKO): > 5 µM
IC50 (RT-112): > 5 µM
IC50 (SCC-25): > 5 µM
IC50 (SCH): > 5 µM
IC50 (SF-126): > 5 µM
IC50 (SJSA-1): > 5 µM
IC50 (SK-LU-1): > 5 µM
IC50 (SK-MEL-24): > 5 µM
IC50 (SNU-387): > 5 µM
IC50 (SW-620): > 5 µM
IC50 (786-0): > 5 µM
IC50 (8505C): > 5 µM
IC50 (A2780): > 5 µM
IC50 (AN3-CA): > 5 µM
IC50 (BB49-HNC): > 5 µM
IC50 (TE-10): > 5 µM
IC50 (TGBC24TKB): > 5 µM
IC50 (TGW): > 5 µM
IC50 (TYK-nu): > 5 µM
IC50 (YAPC): > 5 µM
IC50 (CHL-1): > 5 µM

O=C(NOCC1CC1)c1ccc(F)c(F)c1Nc1ccc(I)cc1Cl [CI-1040]
IC50 (Capan-2): > 10 µM
IC50 (ES5): > 10 µM
IC50 (ES7): > 10 µM
IC50 (FTC-133): > 10 µM
IC50 (GB-1): > 10 µM
IC50 (HCC1954): > 10 µM
IC50 (HCE-T): 2.83 µM
IC50 (HMV-2 cell line): 0.645 µM
IC50 (HuTu80): > 10 µM
IC50 (HuP-T4): 1.18 µM
IC50 (JVM-3): > 10 µM
IC50 (KNS-81-FD): > 10 µM
IC50 (KP-N-YN): > 10 µM
IC50 (KYSE-510): > 10 µM
IC50 (KYSE-520 cell line): > 10 µM
IC50 (KYSE-70 cell line): > 10 µM
IC50 (L-363): 2.74 µM
IC50 (LC-2-ad): > 10 µM
IC50 (LOX IMVI): 1.89 µM
IC50 (LoVo): 1.46 µM
IC50 (MEG-01): 9.25 µM
IC50 (MN-60): > 10 µM
IC50 (MS-1): 8.88 µM
IC50 (NB10): 5.89 µM
IC50 (NB7): 2.34 µM
IC50 (NCI-H1355): 7.59 µM
IC50 (NCI-H1650): > 10 µM
IC50 (NCI-H520): > 10 µM
IC50 (NCI-H810): > 10 µM
IC50 (SNU-5): 3.68 µM
IC50 (OCI-AML2): > 10 µM
IC50 (OVCAR-3): > 10 µM
IC50 (RKO): 8.89 µM
IC50 (RT-112): 1.59 µM
IC50 (SCC-25): 7.71 µM
IC50 (SCH): > 10 µM
IC50 (SF-126): > 10 µM
IC50 (SJSA-1): > 10 µM
IC50 (SK-LU-1): 3.69 µM
IC50 (SK-MEL-24): 0.328 µM
IC50 (SNU-387): > 10 µM
IC50 (SW-620): 1.14 µM
IC50 (786-0): 3.27 µM
IC50 (8505C): 3.9 µM
IC50 (A2780): 0.498 µM
IC50 (AN3-CA): 6.69 µM
IC50 (BB49-HNC): > 10 µM
IC50 (TE-10): > 10 µM
IC50 (TGBC24TKB): > 10 µM
IC50 (TYK-nu): 1.03 µM
IC50 (YAPC): > 10 µM
IC50 (CHL-1): 2.81 µM

Nc1ccn([C@@H]2O[C@H](CO)[C@@H](O)[C@@H]2O)c(=O)n1 [CYTARABINE]
IC50 (Capan-2): > 2 µM
IC50 (ES5): 0.243 µM
IC50 (ES7): 0.257 µM
IC50 (FTC-133): 1.39 µM
IC50 (GB-1): > 2 µM
IC50 (HCC1954): > 2 µM
IC50 (HCE-T): > 2 µM
IC50 (HMV-2 cell line): 0.124 µM
IC50 (HuTu80): 0.561 µM
IC50 (HuP-T4): 0.237 µM
IC50 (JVM-3): 1.45 µM
IC50 (KNS-81-FD): > 2 µM
IC50 (KP-N-YN): > 2 µM
IC50 (KYSE-510): 0.306 µM
IC50 (KYSE-520 cell line): > 2 µM
IC50 (KYSE-70 cell line): 1.86 µM
IC50 (L-363): 1.34 µM
IC50 (LC-2-ad): 0.23 µM
IC50 (LOX IMVI): 0.29 µM
IC50 (LoVo): 0.671 µM
IC50 (MEG-01): > 2 µM
IC50 (MN-60): 0.935 µM
IC50 (MS-1): > 2 µM
IC50 (NB10): 0.188 µM
IC50 (NB7): 1.52 µM
IC50 (NCI-H1355): 0.556 µM
IC50 (NCI-H1650): > 2 µM
IC50 (NCI-H520): > 2 µM
IC50 (NCI-H810): > 2 µM
IC50 (SNU-5): > 2 µM
IC50 (OCI-AML2): 0.545 µM
IC50 (OVCAR-3): > 2 µM
IC50 (RKO): 0.599 µM
IC50 (RT-112): 0.502 µM
IC50 (SCC-25): > 2 µM
IC50 (SCH): > 2 µM
IC50 (SF-126): 0.693 µM
IC50 (SJSA-1): 0.235 µM
IC50 (SK-LU-1): 1.31 µM
IC50 (SK-MEL-24): > 2 µM
IC50 (SNU-387): 0.289 µM
IC50 (SW-620): 0.349 µM
IC50 (786-0): 0.669 µM
IC50 (8505C): > 2 µM
IC50 (A2780): 0.162 µM
IC50 (AN3-CA): 1.84 µM
IC50 (BB49-HNC): > 2 µM
IC50 (TE-10): > 2 µM
IC50 (TGBC24TKB): 1.85 µM
IC50 (TYK-nu): 0.661 µM
IC50 (YAPC): > 2 µM
IC50 (CHL-1): 1.04 µM

Cn1cc(C2=C(c3ccc(Cl)cc3Cl)C(=O)NC2=O)c2ccccc21 [SB-216763]
IC50 (Capan-2): > 10 µM
IC50 (ES5): > 10 µM
IC50 (ES7): > 10 µM
IC50 (FTC-133): > 10 µM
IC50 (GB-1): > 10 µM
IC50 (HCC1954): > 10 µM
IC50 (HCE-T): > 10 µM
IC50 (HMV-2 cell line): 7.68 µM
IC50 (HuTu80): > 10 µM
IC50 (HuP-T4): > 10 µM
IC50 (JVM-3): > 10 µM
IC50 (KNS-81-FD): > 10 µM
IC50 (KP-N-YN): > 10 µM
IC50 (KYSE-510): > 10 µM
IC50 (KYSE-520 cell line): > 10 µM
IC50 (KYSE-70 cell line): > 10 µM
IC50 (L-363): > 10 µM
IC50 (LC-2-ad): > 10 µM
IC50 (LOX IMVI): > 10 µM
IC50 (LoVo): > 10 µM
IC50 (MEG-01): > 10 µM
IC50 (MN-60): > 10 µM
IC50 (MS-1): > 10 µM
IC50 (NB10): > 10 µM
IC50 (NB7): > 10 µM
IC50 (NCI-H1355): > 10 µM
IC50 (NCI-H1650): > 10 µM
IC50 (NCI-H520): > 10 µM
IC50 (NCI-H810): > 10 µM
IC50 (SNU-5): > 10 µM
IC50 (OCI-AML2): > 10 µM
IC50 (OVCAR-3): > 10 µM
IC50 (RKO): > 10 µM
IC50 (RT-112): > 10 µM
IC50 (SCC-25): > 10 µM
IC50 (SCH): > 10 µM
IC50 (SF-126): > 10 µM
IC50 (SJSA-1): > 10 µM
IC50 (SK-LU-1): > 10 µM
IC50 (SK-MEL-24): > 10 µM
IC50 (SNU-387): > 10 µM
IC50 (SW-620): > 10 µM
IC50 (786-0): > 10 µM
IC50 (8505C): > 10 µM
IC50 (A2780): > 10 µM
IC50 (AN3-CA): > 10 µM
IC50 (BB49-HNC): > 10 µM
IC50 (TE-10): > 10 µM
IC50 (TGBC24TKB): > 10 µM
IC50 (TYK-nu): > 10 µM
IC50 (YAPC): > 10 µM
IC50 (CHL-1): > 10 µM
